PubChem BioAssay AID504

Target: Ras-related C3 botulinum toxin substrate 3 (Homo sapiens) (UniProt P60763)
Test: RAC3 binders by thermal stabilization, biophysical, recombinant human protein, DSF (AID 504)
Details: SYPRO orange, at 10 µM, protein 2 µM, buffer 10 mM HEPES, pH 7.5, NaCl 150 mM, active compounds read high

Row | SMILES | Tm shift
1 | N#C/C(=C1\Nc2ccccc2S1)c1ccnc(NCCc2cccnc2)n1 | 2.3 °C
2 | N#CC(C(N)Sc1ccccc1N)C(C#N)C(N)Sc1ccccc1N (configuration not stated) | 2.4 °C
